Values joined by “and” are separate entries in the source; they are usually repeats but may differ in a detail not shown here. Equal entries are not always repeated. Inconclusive results and toxic doses are left out. Peptide text beside a SMILES is read from it.
System: BDF1 mice, B16 melanoma ip, median survival T/C
Assay: NCI In Vivo Anticancer Drug Screen. Data for tumor model B16 Melanoma (intraperitoneal) in B6D2F1 (BDF1) mice
Settings: endpoint: median survival time, higher = longer survival
Method in brief: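 Vehicle-treated animals serve as the reference (C); treated animals (T) are scored for survival or tumor size after tumor transplantation.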

[1] = dose: 100.0 mg/kg/injection, schedule: Q01DX009 (ip), vehicle: Klucel (hydroxypropylcellulose) (HPC)
[2] = dose: 200.0 mg/kg/injection, schedule: Q01DX009 (ip), vehicle: Klucel (hydroxypropylcellulose) (HPC)
[3] = dose: 400.0 mg/kg/injection, schedule: Q01DX009 (ip), vehicle: Klucel (hydroxypropylcellulose) (HPC)
[4] = dose: 12.5 mg/kg/injection, schedule: Q01DX009 (ip), vehicle: Klucel (hydroxypropylcellulose) (HPC)
[5] = dose: 6.25 mg/kg/injection, schedule: Q01DX009 (ip), vehicle: Klucel (hydroxypropylcellulose) (HPC)
[6] = dose: 100.0 mg/kg/injection, schedule: Q01DX009 (ip), vehicle: saline
[7] = dose: 6.25 mg/kg/injection, schedule: Q01DX009 (ip), vehicle: saline
[8] = dose: 12.5 mg/kg/injection, schedule: Q01DX009 (ip), vehicle: saline

## CC(C)CC(N)C(=O)NCC(=O)NC(Cc1ccccc1)C(=O)O (stereo not drawn) (H-Leu-Gly-Phe-OH; configuration not given here)
[1]
  T/C: 93 % of control
dose: 100.0 mg/kg/injection, schedule: Q04DX003 (ip), vehicle: Klucel (hydroxypropylcellulose) (HPC)
  T/C: 95 % of control
[2]
  T/C: 91 % of control
dose: 200.0 mg/kg/injection, schedule: Q04DX003 (ip), vehicle: Klucel (hydroxypropylcellulose) (HPC)
  T/C: 97 % of control
[3]
  T/C: 89 % of control
dose: 400.0 mg/kg/injection, schedule: Q04DX003 (ip), vehicle: Klucel (hydroxypropylcellulose) (HPC)
  T/C: 102 % of control

## Cc1ncc([N+](=O)[O-])n1CCO
dose: 18.7 mg/kg/injection, schedule: Q01DX009 (ip), vehicle: Klucel (hydroxypropylcellulose) (HPC)
  T/C: 104 % of control
dose: 37.5 mg/kg/injection, schedule: Q01DX009 (ip), vehicle: Klucel (hydroxypropylcellulose) (HPC)
  T/C: 118 % of control
dose: 75.0 mg/kg/injection, schedule: Q01DX009 (ip), vehicle: Klucel (hydroxypropylcellulose) (HPC)
  T/C: 115 % of control
dose: 150.0 mg/kg/injection, schedule: Q01DX009 (ip), vehicle: Klucel (hydroxypropylcellulose) (HPC)
  T/C: 102 % of control
dose: 300.0 mg/kg/injection, schedule: Q01DX009 (ip), vehicle: Klucel (hydroxypropylcellulose) (HPC)
  T/C: 113 % of control
dose: 600.0 mg/kg/injection, schedule: Q01DX009 (ip), vehicle: Klucel (hydroxypropylcellulose) (HPC)
  T/C: 106 % of control

## COc1cccc(/C=c2\[nH]c(=O)/c(=C/c3cccc(OC)c3OC)[nH]c2=O)c1OC
[4]
  T/C: 89 % of control
dose: 25.0 mg/kg/injection, schedule: Q01DX009 (ip), vehicle: Klucel (hydroxypropylcellulose) (HPC)
  T/C: 99 % of control
dose: 50.0 mg/kg/injection, schedule: Q01DX009 (ip), vehicle: Klucel (hydroxypropylcellulose) (HPC)
  T/C: 92 % of control and 96 % of control

## Nc1nc(=S)c2[nH]c(N=Nc3ccc(S(=O)(=O)Nc4ncccn4)cc3)nc2[nH]1
dose: 1.56 mg/kg/injection, schedule: Q01DX009 (ip), vehicle: Klucel (hydroxypropylcellulose) (HPC)
  T/C: 95 % of control
dose: 3.12 mg/kg/injection, schedule: Q01DX009 (ip), vehicle: Klucel (hydroxypropylcellulose) (HPC)
  T/C: 102 % of control
[5]
  T/C: 113 % of control
[4]
  T/C: 102 % of control

## Cc1ccc2oc(-c3ccccc3)c(O)c(=O)c2c1
[6]
  T/C: 106 % of control
dose: 200.0 mg/kg/injection, schedule: Q01DX009 (ip), vehicle: saline
  T/C: 108 % of control
dose: 400.0 mg/kg/injection, schedule: Q01DX009 (ip), vehicle: saline
  T/C: 104 % of control

## Clc1ccc2c3c(cccc13)CC2
dose: 5.0 mg/kg/injection, schedule: Q01DX009 (ip), vehicle: saline with Tween-80
  T/C: 87 % of control
dose: 10.0 mg/kg/injection, schedule: Q01DX009 (ip), vehicle: saline with Tween-80
  T/C: 92 % of control
dose: 20.0 mg/kg/injection, schedule: Q01DX009 (ip), vehicle: saline with Tween-80
  T/C: 87 % of control
dose: 40.0 mg/kg/injection, schedule: Q01DX009 (ip), vehicle: saline with Tween-80
  T/C: 87 % of control

## O[C@H](CN1CC1)[C@@H](O)CN1CC1
dose: 0.13 mg/kg/injection, schedule: Q01DX009 (ip), vehicle: saline
  T/C: 117 % of control
dose: 0.25 mg/kg/injection, schedule: Q01DX009 (ip), vehicle: saline
  T/C: 151 % of control
dose: 0.5 mg/kg/injection, schedule: Q01DX009 (ip), vehicle: saline
  T/C: 166 % of control

## CC1(C)N=C(N)N=C(N)N1c1cccc(CCCCc2ccc(Cl)c(S(=O)(=O)F)c2)c1
dose: 3.13 mg/kg/injection, schedule: Q01DX009 (ip), vehicle: Klucel (hydroxypropylcellulose) (HPC)
  T/C: 94 % of control
[5]
  T/C: 100 % of control
[4]
  T/C: 94 % of control

## OCCN1CCN(CCCN2c3ccccc3Oc3ccc(C(F)(F)F)cc32)CC1
dose: 0.78 mg/kg/injection, schedule: Q01DX009 (ip), vehicle: saline
  T/C: 105 % of control
dose: 1.56 mg/kg/injection, schedule: Q01DX009 (ip), vehicle: saline
  T/C: 100 % of control
dose: 3.12 mg/kg/injection, schedule: Q01DX009 (ip), vehicle: saline
  T/C: 107 % of control
[7]
  T/C: 102 % of control
[8]
  T/C: 87 % of control

## N#Cc1ccccc1C(C#N)c1ccc([N+](=O)[O-])cc1 (configuration not stated)
dose: 100.0 mg/kg/injection, schedule: Q01DX009 (ip), vehicle: saline with Tween-80
  T/C: 100 % of control
dose: 200.0 mg/kg/injection, schedule: Q01DX009 (ip), vehicle: saline with Tween-80
  T/C: 90 % of control

## CC(C)N(C(=O)c1ccc(C(=O)N(c2ccccc2)C(C)C)cc1)c1ccccc1
dose: 12.5 mg/kg/injection, schedule: Q01DX009 (ip), vehicle: saline with Tween-80
  T/C: 103 % of control
dose: 25.0 mg/kg/injection, schedule: Q01DX009 (ip), vehicle: saline with Tween-80
  T/C: 99 % of control
dose: 50.0 mg/kg/injection, schedule: Q01DX009 (ip), vehicle: saline with Tween-80
  T/C: 99 % of control

## C[N+](C)(C)c1ncnc2c1ncn2C1CCCO1 (configuration not stated)
[7]
  T/C: 111 % of control
[8]
  T/C: 105 % of control
dose: 25.0 mg/kg/injection, schedule: Q01DX009 (ip), vehicle: saline
  T/C: 108 % of control
dose: 50.0 mg/kg/injection, schedule: Q01DX009 (ip), vehicle: saline
  T/C: 111 % of control
[6]
  T/C: 117 % of control

## C[C@]12C=CC(=O)C=C1CC[C@@H]1[C@@H]2C(=O)C[C@@]2(C)[C@H]1CC[C@]2(O)C(=O)CO
dose: 12.5 mg/kg/injection, schedule: Q01DX009 (sc), vehicle: steriod suspending solution
  T/C: 102 % of control
dose: 25.0 mg/kg/injection, schedule: Q01DX009 (sc), vehicle: steriod suspending solution
  T/C: 102 % of control
dose: 50.0 mg/kg/injection, schedule: Q01DX009 (sc), vehicle: steriod suspending solution
  T/C: 89 % of control and 102 % of control and 110 % of control
dose: 50.0 mg/kg/injection, schedule: Q01DX017 (sc), vehicle: steriod suspending solution
  T/C: 104 % of control
dose: 50.0 mg/kg/injection, schedule: Q## X009 (sc), vehicle: steriod suspending solution
  T/C: 102 % of control
dose: 100.0 mg/kg/injection, schedule: Q01DX001 (sc), vehicle: steriod suspending solution
  T/C: 100 % of control
dose: 100.0 mg/kg/injection, schedule: Q01DX009 (sc), vehicle: steriod suspending solution
  T/C: 109 % of control
dose: 100.0 mg/kg/injection, schedule: Q01DX017 (sc), vehicle: steriod suspending solution
  T/C: 97 % of control
dose: 100.0 mg/kg/injection, schedule: Q04DX003 (sc), vehicle: steriod suspending solution
  T/C: 109 % of control
dose: 100.0 mg/kg/injection, schedule: Q04DX005 (sc), vehicle: steriod suspending solution
  T/C: 97 % of control
dose: 100.0 mg/kg/injection, schedule: Q## X009 (sc), vehicle: steriod suspending solution
  T/C: 118 % of control
dose: 200.0 mg/kg/injection, schedule: Q01DX001 (sc), vehicle: steriod suspending solution
  T/C: 95 % of control
dose: 200.0 mg/kg/injection, schedule: Q01DX009 (sc), vehicle: steriod suspending solution
  T/C: 123 % of control
dose: 200.0 mg/kg/injection, schedule: Q04DX003 (sc), vehicle: steriod suspending solution
  T/C: 104 % of control
dose: 200.0 mg/kg/injection, schedule: Q04DX005 (sc), vehicle: steriod suspending solution
  T/C: 106 % of control
dose: 200.0 mg/kg/injection, schedule: Q## X009 (sc), vehicle: steriod suspending solution
  T/C: 106 % of control
dose: 400.0 mg/kg/injection, schedule: Q01DX001 (sc), vehicle: steriod suspending solution
  T/C: 95 % of control
dose: 400.0 mg/kg/injection, schedule: Q04DX003 (sc), vehicle: steriod suspending solution
  T/C: 106 % of control
dose: 400.0 mg/kg/injection, schedule: Q04DX005 (sc), vehicle: steriod suspending solution
  T/C: 109 % of control
dose: 400.0 mg/kg/injection, schedule: Q## X009 (sc), vehicle: steriod suspending solution
  T/C: 106 % of control
dose: 800.0 mg/kg/injection, schedule: Q01DX001 (sc), vehicle: steriod suspending solution
  T/C: 93 % of control

## C/C=C\C1OC1(C)c1cc(=O)c2c(C)cc3c(c2o1)C(=O)c1c(O)c(C2CC(C)(N(C)C)C(OC(C)=O)C(C)O2)cc(C2CC(N(C)C)C(O)C(C)O2)c1C3=O (configuration not stated)
dose: 0.1 mg/kg/injection, schedule: Q01DX009 (ip), vehicle: saline
  T/C: 100 % of control
dose: 0.2 mg/kg/injection, schedule: Q01DX009 (ip), vehicle: saline
  T/C: 100 % of control
dose: 0.35 mg/kg/injection, schedule: Q01DX009 (ip), vehicle: saline with Tween-80
  T/C: 88 % of control
dose: 0.4 mg/kg/injection, schedule: Q01DX009 (ip), vehicle: saline
  T/C: 100 % of control
dose: 0.7 mg/kg/injection, schedule: Q01DX009 (ip), vehicle: saline with Tween-80
  T/C: 95 % of control
dose: 0.8 mg/kg/injection, schedule: Q01DX009 (ip), vehicle: saline
  T/C: 106 % of control

## CCC(C)(C)c1ccc(O)c(C(C)(C)CC)c1
[1]
  T/C: 93 % of control
[2]
  T/C: 106 % of control
[3]
  T/C: 106 % of control
